Experimental data as given in US10975092B2, “Pyrimidine seven-membered-ring compounds, preparation method therefor, pharmaceutical composition thereof, and uses thereof” (priority 2016, dated 2021).

Key:
[1] = molecular target: T1, recombinant Mst1 (Homo sapiens, UniProt Q13043); experiment: Inhibition of Mst1 kinase activity, ELISA of Mob1 substrate phosphorylation; type: biochemical; conditions: MST1 IC50, recombinant Mst1 11 nM; ATP 6.7 gIVI; GST-Mob1a substrate; 30° C. 15 min
T1 sequence (Q13043 1-487): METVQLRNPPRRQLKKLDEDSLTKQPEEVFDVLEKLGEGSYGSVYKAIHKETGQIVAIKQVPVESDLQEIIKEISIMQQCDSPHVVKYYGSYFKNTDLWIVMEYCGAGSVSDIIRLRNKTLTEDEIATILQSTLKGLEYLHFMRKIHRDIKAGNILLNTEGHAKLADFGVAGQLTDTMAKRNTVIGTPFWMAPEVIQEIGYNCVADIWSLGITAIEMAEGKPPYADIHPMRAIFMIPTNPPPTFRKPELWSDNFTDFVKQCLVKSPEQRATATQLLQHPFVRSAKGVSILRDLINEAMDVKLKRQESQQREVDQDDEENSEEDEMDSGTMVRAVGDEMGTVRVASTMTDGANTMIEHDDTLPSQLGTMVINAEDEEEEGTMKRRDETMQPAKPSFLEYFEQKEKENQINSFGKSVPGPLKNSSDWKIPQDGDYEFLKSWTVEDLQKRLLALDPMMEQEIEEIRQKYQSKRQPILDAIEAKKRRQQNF
Experimental: (§1) We adopt a specific ELISA (Enzyme-linked immunosorbent assay) assay for measuring the biochemical activity (FIG. 1).
(§2) Specific methods are as follows:
(§3) 1. The substrate was diluted with purified recombinant GST-Mobla 200 nM in coating buffer, added to 96-well plates (Nalge Nunc International, Denmark), coated for overnight at 4° C., washed nextday three times with rinsing solution;
(§4) a. A kinase reaction buffer;
(§5) c. compound (dissolved in DMSO, containing not more than 1% of the total volume of the reaction);
(§6) Control Group Containing No ATP or Kinase;
(§7) 3. The reaction solution was poured to terminate the kinase reaction, and washed 4 times with rinse solution, 5 minutes each wash;
(§8) 4. Add 200 μL, per well of the blocking solution, shaking for 1 hour at room temperature, washed 4 times with rinsing solution;
(§9) 7. Add TMB chromogenic solution (Biolegend, Cat.B200119, B200120). After the color reaction to a certain extent, add to each well 100 μL, of 2M H2SO4 to terminate the reaction;
(§10) 8. […] Each set of three parallel experiments, the negative control is a solution with a final concentration of 1% DMSO, the control is the reaction system containing no ATP. […] The reagents are as follows: Coating Buffer: 0.1M NaHCO 3, 0.033M Na2CO3, pH 9.5 Rinse solution: 0.05% Tween-20 in PBS Reaction buffer: 40 mM of Hepes-NaOH (pH 7.4), 10 mM of MgCl2, 1 mM of dithiothreitol (DTT), 1 mM of NaF, 1 mM of Na3VO4, 1 mM of β-glycerophosphate Blocking solution: 1% BSA dissolved in PBS Compound Inhibition of Kinase Activity

[2] = molecular target: T2, recombinant MST2 (Homo sapiens, UniProt Q13188); experiment: Inhibition of Mst2 kinase activity, ELISA of Mob1 substrate phosphorylation; type: biochemical; conditions: MST2 IC50, 3.7 nM recombinant MST2; ATP 11.2 gIVI; GST-Mob1a substrate; 30° C. 15 min
T2 sequence (Q13188 1-491): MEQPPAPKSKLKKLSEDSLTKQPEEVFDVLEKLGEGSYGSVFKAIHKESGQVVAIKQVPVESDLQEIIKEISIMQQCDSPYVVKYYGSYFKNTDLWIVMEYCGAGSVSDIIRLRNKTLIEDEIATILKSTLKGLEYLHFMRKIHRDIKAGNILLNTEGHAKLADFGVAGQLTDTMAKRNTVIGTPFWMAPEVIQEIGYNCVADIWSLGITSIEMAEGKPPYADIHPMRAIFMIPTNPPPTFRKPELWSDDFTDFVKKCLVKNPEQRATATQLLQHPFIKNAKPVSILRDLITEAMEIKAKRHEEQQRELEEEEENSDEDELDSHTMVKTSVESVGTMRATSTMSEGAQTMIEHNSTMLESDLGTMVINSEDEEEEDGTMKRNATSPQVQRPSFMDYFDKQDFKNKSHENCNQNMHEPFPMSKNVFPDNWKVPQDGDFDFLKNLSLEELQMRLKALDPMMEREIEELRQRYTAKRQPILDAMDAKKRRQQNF
Experimental: as §1, §2, §3, §4, §5, §6, §7, §8, §9, §10

SMILES | IC50 [1] | IC50 [2]
CN1CCN(S(=O)(=O)c2ccc(Nc3ncc4c(n3)N(C)c3ccccc3C(=O)N4)cc2)CC1 [IA-2] | 2380 nM | 14800 nM
CN1CCN(S(=O)(=O)c2ccc(Nc3ncc4c(n3)N(C3CCCC3)c3ccccc3C(=O)N4)cc2)CC1 [IB-2] | > 30000 nM | > 30000 nM
O=C1Nc2cnc(Nc3ccc(S(=O)(=O)N4CCC(O)CC4)cc3)nc2N(C2CCCC2)c2ccccc21 [IB-3] | > 30000 nM | > 30000 nM
CN1C(=O)c2ccccc2N(C)c2nc(Nc3ccc(S(N)(=O)=O)cc3)ncc21 [IC-1] | 70 nM | 110 nM
CN1CCN(S(=O)(=O)c2ccc(Nc3ncc4c(n3)N(C)c3ccccc3C(=O)N4C)cc2)CC1 [IC-2] | 2320 nM | 7800 nM
CN1C(=O)c2ccccc2N(C)c2nc(Nc3ccc(S(=O)(=O)N4CCC(O)CC4)cc3)ncc21 [IC-3] | 670 nM | 520 nM
CSc1ccc(Nc2ncc3c(n2)N(C)c2ccccc2C(=O)N3C)cc1 [IC-6] | 1910 nM | 1800 nM
CN1C(=O)c2ccccc2N(C)c2nc(Nc3ccc(S(C)(=O)=O)cc3)ncc21 [IC-7] | 500 nM | 90 nM
CN1C(=O)c2ccccc2N(C)c2nc(Nc3ccc(S(=O)(=O)Oc4ccccc4)cc3)ncc21 [IC-8] | 13500 nM | 200 nM
CN1C(=O)c2ccccc2N(C)c2nc(Nc3ccc(S(=O)(=O)NC4CC4)cc3)ncc21 [IC-9] | 180 nM | 2330 nM
CN1C(=O)c2ccccc2N(C)c2nc(Nc3ccc(NS(C)(=O)=O)cc3)ncc21 [IC-10] | 240 nM | 80 nM
CCN1c2ccccc2C(=O)N(C)c2cnc(Nc3ccc(NS(C)(=O)=O)cc3)nc21 [ID-2] | 80 nM | 390 nM
CCN1c2ccccc2C(=O)N(C)c2cnc(Nc3cccc(S(N)(=O)=O)c3)nc21 [ID-3] | 8650 nM | –
CC(C)N1c2ccccc2C(=O)N(C)c2cnc(Nc3cccc(S(N)(=O)=O)c3)nc21 [IE-2] | 15800 nM | –
CC(C)N1c2ccccc2C(=O)N(C)c2cnc(Nc3ccc(NS(C)(=O)=O)cc3)nc21 [IE-3] | 2720 nM | 8210 nM
CN1C(=O)c2ccccc2N(C2CCCC2)c2nc(Nc3ccc(S(N)(=O)=O)cc3)ncc21 [IF-2] | 630 nM | 3860 nM
CN1C(=O)c2ccccc2N(C2CCCC2)c2nc(Nc3ccc(S(=O)(=O)N4CCC(O)CC4)cc3)ncc21 [IF-3] | 2440 nM | 15700 nM
CN1CCN(S(=O)(=O)c2ccc(Nc3ncc4c(n3)N(C3CCCC3)c3ccccc3C(=O)N4C)cc2)CC1 [IF-4] | 6460 nM | –
CCN1CCN(Cc2ccc(Nc3ncc4c(n3)N(C3CCCC3)c3ccccc3C(=O)N4C)cc2C(F)(F)F)CC1 [IF-6] | 9760 nM | –
CN1C(=O)c2ccccc2Nc2nc(Nc3ccc(S(N)(=O)=O)cc3)ncc21 [IG-1] | 1550 nM | 2700 nM
CN1C(=O)c2ccccc2Nc2nc(Nc3ccc(NS(C)(=O)=O)cc3)ncc21 [IG-2] | 5800 nM | 14600 nM
Cc1ccc2c(c1)N(C)c1nc(Nc3ccc(S(C)(=O)=O)cc3)ncc1N(C)C2=O [IH-1] | 5010 nM | 4810 nM
Cc1cccc2c1N(C)c1nc(Nc3ccc(S(C)(=O)=O)cc3)ncc1N(C)C2=O [IH-2] | 890 nM | 1680 nM
Cc1cccc2c1N(C)c1nc(Nc3ccc(S(N)(=O)=O)cc3)ncc1N(C)C2=O [IH-4] | 150 nM | 190 nM
Cc1ccc2c(c1)N(C)c1nc(Nc3ccc(S(N)(=O)=O)cc3)ncc1N(C)C2=O [IH-5] | 2400 nM | 2730 nM
CN1C(=O)c2ccc(F)cc2N(C)c2nc(Nc3ccc(S(N)(=O)=O)cc3)ncc21 [IH-7] | 3120 nM | 2490 nM
CN1C(=O)c2ccc(F)cc2N(C)c2nc(Nc3ccc(S(C)(=O)=O)cc3)ncc21 [IH-8] | 2170 nM | 3360 nM

SMILES | IC50 [1] | IC50 [2]
CN1C(=O)c2cc(Cl)ccc2N(C)c2nc(Nc3ccc(S(C)(=O)=O)cc3)ncc21 [IH-9] | 5670 nM | 11600 nM
CN1C(=O)c2cc(Cl)ccc2N(C)c2nc(Nc3ccc(S(N)(=O)=O)cc3)ncc21 [IH-10] | 5930 nM | –
CN1C(=O)c2cccc(F)c2N(C)c2nc(Nc3ccc(S(N)(=O)=O)cc3)ncc21 [IH-11] | 230 nM | 440 nM
CN1C(=O)c2cccc(F)c2N(C)c2nc(Nc3ccc(S(C)(=O)=O)cc3)ncc21 [IH-12] | 1660 nM | 1940 nM
CN1C(=O)c2ccc(Cl)cc2N(C)c2nc(Nc3ccc(S(N)(=O)=O)cc3)ncc21 [IH-13] | 7820 nM | 9470 nM
CN1C(=O)c2ccc(Cl)cc2N(C)c2nc(Nc3ccc(S(C)(=O)=O)cc3)ncc21 [IH-14] | – | 22500 nM
CN1C(=O)c2sccc2N(C)c2nc(Nc3cccc(S(N)(=O)=O)c3)ncc21 [II-2] | 2710 nM | –
CSc1ccc(Nc2ncc3c(n2)N(C)c2ccsc2C(=O)N3C)cc1 [II-3] | 850 nM | 1720 nM
CN1C(=O)c2sccc2N(C)c2nc(Nc3ccc(S(C)(=O)=O)cc3)ncc21 [II-4] | 170 nM | 220 nM
CN1C(=O)c2sccc2N(C)c2nc(Nc3ccc(S(=O)(=O)Oc4ccccc4)cc3)ncc21 [II-5] | 4640 nM | 8890 nM
CN1C(=O)c2sccc2N(C)c2nc(Nc3ccc(S(=O)(=O)NC4CC4)cc3)ncc21 [II-6] | 260 nM | 20 nM
CN1CCN(S(=O)(=O)c2ccc(Nc3ncc4c(n3)N(C)c3ccsc3C(=O)N4C)cc2)CC1 [II-7] | 1100 nM | 150 nM
CN1C(=O)c2sccc2N(C)c2nc(Nc3ccc(S(=O)(=O)N4CCC(O)CC4)cc3)ncc21 [II-8] | 80 nM | 1030 nM
CN1C(=O)c2sccc2N(C)c2nc(Nc3ccc(C(=O)O)cc3)ncc21 [II-10] | 1020 nM | 1970 nM
CN1C(=O)c2sccc2N(C)c2nc(Nc3ccc(O)cc3)ncc21 [II-12] | 570 nM | 220 nM
CN1C(=O)c2sccc2N(C)c2nc(Nc3ccc(C(N)=O)cc3)ncc21 [II-13] | 330 nM | 260 nM
CN1C(=O)c2sccc2N(C)c2nc(Nc3ccc(N4CCC(O)CC4)cc3)ncc21 [II-15] | 650 nM | 1990 nM
CN1CCN(C(=O)c2ccc(Nc3ncc4c(n3)N(C)c3ccsc3C(=O)N4C)cc2)CC1 [II-17] | 610 nM | 2510 nM
CN1C(=O)c2sccc2N(C)c2nc(Nc3ccc(NC(=O)CCl)cc3)ncc21 [II-18] | 3340 nM | 13000 nM
CN1C(=O)c2sccc2N(C)c2nc(Nc3ccc(NC(=O)CBr)cc3)ncc21 [II-19] | 3030 nM | 12600 nM
CN1CCC(n2cc(Nc3ncc4c(n3)N(C)c3ccsc3C(=O)N4C)cn2)CC1 [II-20] | 110 nM | 2320 nM
CN1CCN(c2ccc(Nc3ncc4c(n3)N(C)c3ccsc3C(=O)N4C)cc2)CC1 [II-21] | 250 nM | 3100 nM
C=CC(=O)Nc1ccc(Nc2ncc3c(n2)N(C)c2ccsc2C(=O)N3C)cc1 [II-23] | 770 nM | 4760 nM
CN1CCN(C2CCN(C(=O)c3ccc(Nc4ncc5c(n4)N(C)c4ccsc4C(=O)N5C)cc3)CC2)CC1 [II-24] | 220 nM | 2250 nM
CN1C(=O)c2sccc2N(C)c2nc(Nc3ccc(OC(=O)CCl)cc3)ncc21 [II-25] | 580 nM | 2240 nM
CN1C(=O)c2sccc2N(C)c2nc(Nc3cc[nH]n3)ncc21 [II-27] | 3440 nM | –
